The numbers were not newly measured in patent publication US20040198838A1, “Pharmaceutical compositions containig terbinafin and use thereof” (priority 2001, published 2004), which cites them from elsewhere.

In data set [1] the target is CYP2D6 (Homo sapiens, UniProt P10635).
CYP2D6, sequence (P10635 whole entry): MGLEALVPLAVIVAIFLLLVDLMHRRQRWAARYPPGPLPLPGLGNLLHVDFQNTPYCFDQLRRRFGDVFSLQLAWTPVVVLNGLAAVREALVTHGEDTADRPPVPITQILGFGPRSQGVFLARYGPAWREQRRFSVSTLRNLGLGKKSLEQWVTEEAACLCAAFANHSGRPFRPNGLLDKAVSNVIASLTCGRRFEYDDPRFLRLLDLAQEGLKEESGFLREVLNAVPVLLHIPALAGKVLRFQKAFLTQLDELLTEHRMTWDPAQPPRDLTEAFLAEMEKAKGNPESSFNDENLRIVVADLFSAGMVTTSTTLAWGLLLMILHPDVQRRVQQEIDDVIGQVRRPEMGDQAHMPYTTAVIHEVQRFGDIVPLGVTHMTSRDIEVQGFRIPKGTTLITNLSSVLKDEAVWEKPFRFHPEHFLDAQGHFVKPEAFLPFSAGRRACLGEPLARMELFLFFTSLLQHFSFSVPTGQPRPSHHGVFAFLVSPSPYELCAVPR

As to `CN(C/C=C/C#CC(C)(C)C)Cc1cccc2ccccc12` [terbinafine, Terbinafine], in data set [1], the “inhibition of CYP2D6” value is recorded as “potent inhibitor”. Also, the effective half-life result (in vivo) was “about 36 hours”. The reduction of clearance entry (patients with renal impairment (creatinine clearance up to 50 ml/min) or hepatic cirrhosis) was “approximately 50%”. Further, under “single 250 mg terbinafine dose”, the “area under the curve over 24 hours (AUC)” value is given as “about 4.56 μg.hour/ml”, the “peak drug plasma concentration (Cmax)” value was “about 1 μg/ml” and the “time to peak drug plasma concentration” value is ≤ 2 h. In addition, under “steady state”, the “factor of AUC increase in steady state versus single dose” value is recorded as 2.5 and the “increase of peak blood concentration (Cmax) in steady state versus single dose” value is reported as 25%. Moreover, the “change in AUC when administered with a meal” value (with a meal) is reported as “moderate increase”.
